Experimental data reported in patent US7271274B2, “Phenolic antioxidants for the treatment of disorders including arthritis, asthma and coronary artery disease” (AhteroGenics, Inc., priority 2004, dated 2007).

Legend:
VCAM-1 [1] = assay: In Vitro VCAM-1 Assay - Method 1 (TNF-α stimulated endothelial cells, surface VCAM-1 ELISA); type: cell-based; details: Homo sapiens, Endothelial cell; HAEC or HPAEC, TNF-α 1 ng/ml with compound approximately 16 hours
Experimental: Cell Culture and compound dosing: Cultured primary human aortic (HAEC) or pulmonary (HPAEC) endothelial cells were obtained from Clonetics, Inc., and were used below passage 9. Cells were seeded in 96 well plates such that they would reach 90–95% confluency by the following day. On the following day the cells were stimulated with TNF-α (1 ng/ml) in the presence or absence of compounds dissolved in DMSO such that the final concentration of DMSO is 0.25% or less. To establish a dose curve for each compound, four concentrations in 2- to 5-fold increments were used. Cells were exposed to TNF-α and compounds for approximately 16 hours. The next day the cells were examined under microscope to score for visual signs of toxicity or cell stress.
Following 16 hr exposure to TNF-α and compound the media was discarded and the cells were washed once with Hanks Balanced Salt Solution (HBSS)/Phosphate buffered saline (PBS) (1:1). Primary antibodies against VCAM-1 (0.25 μg/ml in HBSS/PBS+5% FBS) were added and incubated for 30–60 minutes at 37° C. Cells were washed with HBSS/PBS three times, and secondary antibody Horse Radish Peroxidase (HRP)-conjugated goat anti-mouse IgG (1:500 in HBSS/PBS+5% FBS) were added and incubated for 30 minutes at 37° C. Cells were washed with HBSS/PBS four time and TMB substrate were added and incubated at room temperature in the dark until there was adequate development of blue color. The length of time of incubation was typically 5–15 minutes. 2N sulfuric acid was added to stop the color development and the data was collected by reading the absorbance on a BioRad ELISA plate reader at OD 450 nm. The results are expressed as IC50 values (the concentration (micromolar) of compound required to inhibit 50% of the maximal response of the control sample stimulated by TNF-α only). IC50's of tested compounds are tabulated in Biological Table 1.

TNF-α = assay: Cytokine screening: LPS-induced secretion of TNF-α from hPBMCs; type: cell-based; details: Homo sapiens, Biological Table 3; LPS-induced secretion from hPBMN cells; average of at least three determinations
Experimental: Fresh cryopreserved hPBMCs (1 million cells/ml; Clonetics, Inc.) were pretreated with test compound for 1 hr in lymphocyte growth media-3 (Clonetics, Inc.), followed by stimulation with 1 μg/ml of LPS for another 2 hr in the presence of test compound. Conditioned media was collected and assayed for secreted TNF-α, IL-1β and […] using commercially available human ELISA kits (R&D Systems). Samples were measured in duplicate and data presented as mean ± standard deviation. Each experiment was repeated at least three times with similar results.

Female Lewis rats = assay: In vivo rheumatoid arthritis model (Freund's complete adjuvant, paw swelling); details: paw swelling vs vehicle control
Experimental: Female Lewis rats (200–250 g) were sensitized with Freund's complete adjuvant (100 ug) by subcutaneous injection at the base of the tail. Paw swelling was monitored by measuring the volume of each foot with a plethysmometer on days 5, 8, 12–15. Animals were euthanized on day 15. […] Data is expressed as the % inhibition of paw swelling (AUC of the paw volume vs time curve d5–15) compared with vehicle control. The formulations used contained various mixtures of the following excipients (propylene glycol, polyethylene glycol, Tween 80, Glycofurol).

Balb/C mice = assay: In vivo asthma model (ovalbumin-sensitized mice, BAL fluid eosinophilia); details: 25 mg/kg, sc, qd; BALF eosinophilia vs vehicle control
Experimental: Balb/C mice (6–8 weeks old) were sensitized to ovalbumin (ova) (8 ug ova absorbed in 3.3 mg Alum inject) on days 0 and 5. On day 12, the mice were aerosol challenged with 0.5% ovalbumin dissolved in sterile saline for 1 hr in the AM, and then again in the PM (at least 4 hr apart). On day 14, the mice were anesthetized with ketamine/xylazine/acepromazine cocktail, exsanguinated, and then euthanized. Following blood collection, bronchoaveolar lavage (BAL) was performed on each animal. Total cell counts were conducted on the lavage fluid, which was subsequently diluted with cell media 1:1. Slides of the lavage fluid were made by spinning the samples with a cytospin centrifuge and then air drying. Cell differentials of the lavage fluid were determined by microscopic evaluation of hematoxylin and eosin-stained slides. Data are expressed as the % inhibition of eosinophilia in the BAL fluid compared to the vehicle control. […] The formulations used contained various mixtures of the following excipients (propylene glycol, polyethylene glycol, Tween 80, Glycofurol).

VCAM-1 [2] = assay: In Vitro VCAM-1 Assay - Method 2 (19 h predosing, 4 h TNFα stimulation, surface VCAM-1); type: cell-based; details: Homo sapiens; HAEC or HPAEC, predosed 19 hours, TNFα 1.5 ng/ml 4 hours
Experimental: Cultured primary human aortic (HAEC) or pulmonary artery (HPAEC) endothelial cells are obtained from BioWhittaker (formerly Clonetics), and are used below passage 9. Cells are seeded in 96-well plates such that they will reach ˜95% confluency by the following day (i.e.10,000 cells/well). Compounds are reconstituted in DMSO (100%) and sonicated to ensure maximum dissolution. Dilutions are then made in DMSO to 500× of final concentrations. These stocks are then diluted 500× into cell culture media (EGM-2 Mv, BioWhittaker) and placed overnight in tissue culture incubator (37° C., 5% CO2) to allow maximum dissolution).
Media is removed from the cells and replaced with the prewarmed dosing media. Cells are predosed in this manner for 19 hours at 37° C., 5% CO2. Remove media again from the cells and replace with prepared dosing media containing TNFα (1.5 ng/ml). Allow stimulation to continue for 4 hours at 37° C., 5% CO2. Media is removed and saved for evaluation of secreted factors as needed. Cells are used for quantitating surface VCAM-1, followed by Hoescht nuclear stain for cell number to determine toxicity. Assay for surface VCAM-1 continues as described in Method 1. IC50's of tested compounds are tabulated in Biological Table 1.

Structure (SMILES)	IC50 (VCAM-1 [1]) [µM]	melting point [°C]	IC50 (TNF-α) [µM]	IC50 (VCAM-1 [2]) [µM]	Rheumatoid arthritis model (25 mg/kg, sc, qd, inhibition of paw swelling in percentage) (Female Lewis rats) [percentage]	Inhibition of BAL fluid eosinophilia (asthma model) (Balb/C mice) [percentage]
CC(C)(Sc1cc(C(C)(C)C)c(O)c(C(C)(C)C)c1)Sc1cc(C(C)(C)C)c(OCC[C@H](O)CO)c(C(C)(C)C)c1 [Ex-10, 4-{2,6-Di-tert-butyl-4-[1-(3,5-di-tert-butyl-4-hydroxy-phenylsulfanyl)-1-methyl-ethylsulfanyl]-phenoxy}-butane-1,2(S)-diol]	40	110 to 112	3.8	8	85	78
CC(C)(Sc1cc(C(C)(C)C)c(O)c(C(C)(C)C)c1)Sc1cc(C(C)(C)C)c(OCC[C@@H](O)CO)c(C(C)(C)C)c1 [Ex-11, 4-{2,6-Di-tert-butyl-4-[1-(3,5-di-tert-butyl-4-hydroxy-phenylsulfanyl)-1-methyl-ethylsulfanyl]-phenoxy}-butane-1,2(R)-diol]	> 50		4.4	7	85	95
CC(C)(Sc1cc(C(C)(C)C)c(O)c(C(C)(C)C)c1)Sc1cc(C(C)(C)C)c(OCCC[C@H](O)CO)c(C(C)(C)C)c1 [Ex-13, 5-{2,6-Di-tert-butyl-4-[1-(3,5-di-tert-butyl-4-hydroxy-phenylsulfanyl)-1-methyl-ethylsulfanyl]-phenoxy}-pentane-1,2(S)-diol]		68 to 71		11		60
CC(C)(Sc1cc(C(C)(C)C)c(O)c(C(C)(C)C)c1)Sc1cc(C(C)(C)C)c(OCCC(O)C(O)CCO)c(C(C)(C)C)c1 (stereo not drawn) [Ex-14, 6-{2,6-Di-tert-butyl-4-[1-(3,5-di-tert-butyl-4-hydroxy-phenylsulfanyl)-1-methyl-ethylsulfanyl]-phenoxy}-hexane-1,3,4-triol]	21	75 to 77		9.2		84
COC[C@H](O)[C@@H](O)COc1c(C(C)(C)C)cc(SC(C)(C)Sc2cc(C(C)(C)C)c(O)c(C(C)(C)C)c2)cc1C(C)(C)C [Ex-15, 1-{2,6-Di-tert-butyl-4-[1-(3,5-di-tert-butyl-4-hydroxyphenylsulfanyl)-1-methylethylsulfanyl]phenoxy}-4-methoxybutane-2(S),3(S)-diol]		62 to 64				
COC[C@@H](O)[C@H](O)COc1c(C(C)(C)C)cc(SC(C)(C)Sc2cc(C(C)(C)C)c(O)c(C(C)(C)C)c2)cc1C(C)(C)C [Ex-16, 1-{2,6-Di-tert-butyl-4-[1-(3,5-di-tert-butyl-4-hydroxyphenylsulfanyl)-1-methylethylsulfanyl]phenoxy}-4-methoxybutane-2(R),3(R)-diol]		68 to 70			63	44
COCCOCCOCCOc1c(C(C)(C)C)cc(SC(C)(C)Sc2cc(C(C)(C)C)c(O)c(C(C)(C)C)c2)cc1C(C)(C)C [Ex-19, 2,6-Di-tert-butyl-4-[1-(3,5-di-tert-butyl-4-{2-[2-(2-methoxyethoxy)-ethoxy]ethoxy}-phenyl-sulfanyl)-1-methylethylsulfanyl]phenol]	> 50					
CCOC1O[C@H](CO)[C@@H](COc2c(C(C)(C)C)cc(SC(C)(C)Sc3cc(C(C)(C)C)c(O)c(C(C)(C)C)c3)cc2C(C)(C)C)O1 (stereo partly drawn) [compound 9, 2,6-Di-tert-butyl-4-{1-[3,5-di-tert-butyl-4-(2-ethoxy-5(R)-hydroxymethyl-[1,3]dioxolan-4(R)-ylmethoxy)-phenylsulfanyl]-1-methyl-ethylsulfanyl}-phenol]		60 to 62				

The next lines start with results.

IC50 (VCAM-1 [1]) [µM]	melting point [°C]	IC50 (TNF-α) [µM]	IC50 (VCAM-1 [2]) [µM]	Structure (SMILES)	Rheumatoid arthritis model (25 mg/kg, sc, qd, inhibition of paw swelling in percentage) (Female Lewis rats) [percentage]	Inhibition of BAL fluid eosinophilia (asthma model) (Balb/C mice) [percentage]
6				CC(C)(Sc1cc(C(C)(C)C)c(O)c(C(C)(C)C)c1)Sc1cc(C(C)(C)C)c(OCC(=O)NCC(=O)O)c(C(C)(C)C)c1 [Ex-3, (2-{2,6-Di-tert-butyl-4-[1-(3,5-di-tert-butyl-4-hydroxyphenylsulfanyl)-1-methylethylsulfanyl]phenoxy}acetylamino)acetic acid]		
7	115 to 119			CN(CC(=O)O)C(=O)COc1c(C(C)(C)C)cc(SC(C)(C)Sc2cc(C(C)(C)C)c(O)c(C(C)(C)C)c2)cc1C(C)(C)C [Ex-4, [(2-{2,6-Di-tert-butyl-4-[1-(3,5-di-tert-butyl-4-hydroxyphenylsulfanyl)-1-methylethylsulfanyl]phenoxy}acetyl)methylamino]acetic acid]		
6				CC(C)(Sc1cc(C(C)(C)C)c(O)c(C(C)(C)C)c1)Sc1cc(C(C)(C)C)c(OCC(=O)NCCC(=O)O)c(C(C)(C)C)c1 [Ex-5, 3-(2-{2,6-Di-tert-butyl-4-[1-(3,5-di-tert-butyl-4-hydroxyphenylsulfanyl)-1-methylethylsulfanyl]phenoxy}acetylamino)propionic acid]		
6	163 to 164			CC(C)(Sc1cc(C(C)(C)C)c(O)c(C(C)(C)C)c1)Sc1cc(C(C)(C)C)c(OCC(=O)NC(CO)CO)c(C(C)(C)C)c1 [Ex-6, 2-{2,6-Di-tert-butyl-4-[1-(3,5-di-tert-butyl-4-hydroxyphenylsulfanyl)-1-methyl-ethylsulfanyl]phenoxy}-N-(2-hydroxy-1-hydroxymethyl-ethyl)acetamide]		
13		4.5	6	CC(C)(Sc1cc(C(C)(C)C)c(O)c(C(C)(C)C)c1)Sc1cc(C(C)(C)C)c(OCC(CO)CO)c(C(C)(C)C)c1 [Ex-18, 2-{2,6-Di-tert-butyl-4-[1-(3,5-di-tert-butyl-4-hydroxyphenylsulfanyl)-1-methylethyl-sulfanyl]phenoxymethyl}propane-1,3-diol]	83	60
	146 to 147			CC(C)(Sc1cc(C(C)(C)C)c(O)c(C(C)(C)C)c1)Sc1cc(C(C)(C)C)c(OCCO)c(C(C)(C)C)c1 [compound 17, 2,6-Di-tert-butyl-4-{1-[3,5-di-tert-butyl-4-(2-hydroxy-ethoxy)-phenylsulfanyl]-1-methyl-ethylsulfanyl}-phenol]		
